# Results as given in US20130072506A1, “6,8-DISUBSTITUTED PURINE COMPOSITIONS” (priority 2011, published 2013).
# Key:
# [1] = test system: human skin fibroblast line ASF-2; assay: Cell attachment of human skin fibroblasts; format: cell-based; details: six hours of treatment, 40 to 500 μM
# Protocol: A) Growth characteristics: • (1) Cell attachment frequency: to rule out immediate toxicity; • (2) Cell survival: to rule out delayed toxicity; • (3) Growth rates: to determine cell division stimulatory/inhibitory potential;
# Experimental Procedures. A stock solution of 4 mM for 6-furfurylamino-8-aminopurine and 8 mM for other compounds were prepared by dissolving about […] per ml 1N HCl, followed by its appropriate dilution by the addition of Hank's buffer. The stock solution was filter sterilized, stored at 4° C., and was used for experiments by dilution it in the cell culture medium as required.
# (§1) All cell culture experiments were performed on early and mid passage cultures (about 20 to 40% lifespan completed) of normal human skin fibroblast line, designated ASF-2. In order to check the effects of test compounds on senescent cells, late passage cells with more than 90% lifespan completed were used. ASF-2 cell line was established from a mammary skin biopsy obtained from a young, non-smoking and healthy […] at the time of breast reduction operation. Normal culture conditions of medium (DMEM) containing antibiotics, 10% foetal calf serum, and incubation at 37° C. with 95% humidity were used. The effects of the test compounds were determined using the following procedures.
# [2] = test system: lysosomes of human skin fibroblasts; assay: Lysosomal staining (Neutral Red); format: cell-based; details: treated cells compared to the controls
# Protocol: as §1
# Lysosomal activity. Neutral Red is preferentially taken up into the lysosomes of the cell. Fibroblast cells are maintained in culture and exposed to test compounds over a range of concentrations. The cultures are visually examined after 72 hours, and the number of viable cells and/or the total cell protein content determined, after 72 hours exposure, by the Neutral Red Uptake method. Advantage of Neutral Red assay is that it detects only viable cells. Any material having a localized effect upon the lysosomes will, therefore, result in an artificially low (or possibly high) reflection of cell viability and cell number. […]
# [3] = test system: erytroid leukemia cell line K-562; assay: In vitro cytotoxic activity (metabolisation of Calcein AM); format: cell-based, human; details: Homo sapiens, K562, 72 hours, highest concentration tested 100 μM in routine testing
# How it was run: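 Cells were pre-incubated 24 hours at 2.500-30.000 cells per well, then exposed to six 3-fold dilutions, usually from 100 μM top, for 72 hours at 37° C, 5% CO2, in triplicate. Calcein AM was added at 1 μg/ml final and fluorescence read after 1 hour; GI50 is the concentration halving Calcein AM conversion.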
# [4] = test system: cytokinin-dependent tobacco callus; assay: Growth of cytokinin-dependent tobacco callus (plant cell division); format: cell-based, Nicotiana tabacum L. cv. Wisconsin 38; details: at concentration with highest activity; activity of kinetin set at 100%
# Protocol: The effect on plant cell division. Cytokinin-dependent tobacco callus Nicotiana tabacum L. cv. Wisconsin 38 was maintained at 25° C. in darkness on modified MS medium, containing 4 μmol/l nicotinic acid, 2.4 μmol/l pyridoxine hydrochloride, 1.2 μmol/l thiamine, 26.6 μmol/l glycine, 1.37 μmol/l glutamine, 1.8 μmol/1 myo-inositol, 30 g/l of sucrose, 8 g/l of agar, 5.37 μmol/l NAA and 0.5 μmol/l BAP. Subcultivation was carried out every three weeks. Fourteen days before the bioassay, the callus tissue was transferred to the media without BAP. Biological activity was determined from the increase in fresh callus weight after four weeks of cultivation. Five replicates were prepared for each cytokinin concentration and the entire test was repeated twice. From the obtained data, the concentration with highest activity was selected for each compound tested. Relative activity at this concentration was calculated (see Table 4 below).
# The cytokinins to be tested were dissolved in dimethylsulfoxide (DMSO) and the solution brought up to 10^−3M with distilled water.
# [5] = test system: proteasome; assay: Proteasomal activity (chymotrypsin-like) in cell extracts; format: cell-based, human; details: 40 μM-200 μM
# Protocol: as §1
# Proteasomal activity. Chymotrypsin-like activity in cell extracts prepared from treated and untreated cells was determined by in vitro degradation of oligopeptides by the proteasome.
smiles,measurement,setting,value
"Nc1nc2c(NCc3ccco3)ncnc2[nH]1 [Compound 82, 6-furfurylamino-8-aminopurine]",Percent of cells attached,[1],not affected to any significant extent
same,lysosomes (Neutral Red staining),[2],larger and more numerous
same,GI50,[3],68.2 µM
same,Activity (%),[4],150.10%
same,improvement in the proteasomal activity,[5],5-10%
same,inhibition of chymotrypsin-like proteasomal activity,[5]; compared to untreated,no inhibition
